This is an account of results in ChEMBL document CHEMBL3813616, “Discovery of novel 7-azaindoles as PDK1 inhibitors” (Bioorg Med Chem Lett, 2016).

The target in data set [1] is Homeodomain-interacting protein kinase 2 (Homo sapiens) (UniProt Q9H2X6). The experiment in a line: Inhibition of human HIPK2 (165 to 564 residues) assessed as enzyme activity at 1 uM using 33P ATP by radioactive filter binding assay. Also on record: scale not given: the % may be the effect or the level left.
Data set [2] deals with cAMP-dependent protein kinase catalytic subunit alpha (Homo sapiens) (UniProt P17612). The experiment in a line: Inhibition of human PKA alpha (2 to 351 residues) assessed as enzyme activity at 1 uM using 33P ATP by radioactive filter binding assay. Also on record: scale not given: the % may be the effect or the level left.
A short description of data set [3]: Intrinsic clearance in mouse liver microsomes. Format: ADME. The note with it: read-out: CLH.
Data set [4] deals with Myosin light chain kinase, smooth muscle (Homo sapiens) (UniProt Q15746). Nature of the data set: Inhibition of human smMLCK (475 to 838 residues) assessed as enzyme activity at 1 uM using 33P ATP by radioactive filter binding assay. Also on record: scale not given: the % may be the effect or the level left.
Data set [5] deals with Ribosomal protein S6 kinase alpha-1 (Homo sapiens) (UniProt Q15418). Nature of the data set: Inhibition of human MAPKAPK1alpha (1 to 735 residues) assessed as enzyme activity at 1 uM using 33P ATP by radioactive filter binding assay. Also on record: scale not given: the % may be the effect or the level left.
For data set [6], the target named is Serine/threonine-protein kinase 26 (Homo sapiens) (UniProt Q9P289). The experiment in a line: Inhibition of human MST4 (1 to 416 residues) assessed as enzyme activity at 1 uM using 33P ATP by radioactive filter binding assay. Also on record: scale not given: the % may be the effect or the level left.
Data set [7] has as its target Glycogen synthase kinase-3 beta (Homo sapiens) (UniProt P49841). The experiment in a line: Inhibition of human GSK3beta (2 to 420 residues) assessed as enzyme activity at 1 uM using 33P ATP by radioactive filter binding assay. Also on record: scale not given: the % may be the effect or the level left.
The target in data set [8] is Insulin receptor (Homo sapiens) (UniProt P06213). The experiment in a line: Inhibition of human IR (1001 to 1382 residues) assessed as enzyme activity at 1 uM using 33P ATP by radioactive filter binding assay. Also on record: scale not given: the % may be the effect or the level left.
In data set [9] the target is Phosphatidylinositol 4,5-bisphosphate 3-kinase catalytic subunit beta isoform (Homo sapiens, UniProt P42338). Nature of the data set: Inhibition of PI3K beta (unknown origin).
The target in data set [10] is T1, Ephrin type-B receptor 3 (Homo sapiens) (UniProt P54753).
T1 sequence (whole entry): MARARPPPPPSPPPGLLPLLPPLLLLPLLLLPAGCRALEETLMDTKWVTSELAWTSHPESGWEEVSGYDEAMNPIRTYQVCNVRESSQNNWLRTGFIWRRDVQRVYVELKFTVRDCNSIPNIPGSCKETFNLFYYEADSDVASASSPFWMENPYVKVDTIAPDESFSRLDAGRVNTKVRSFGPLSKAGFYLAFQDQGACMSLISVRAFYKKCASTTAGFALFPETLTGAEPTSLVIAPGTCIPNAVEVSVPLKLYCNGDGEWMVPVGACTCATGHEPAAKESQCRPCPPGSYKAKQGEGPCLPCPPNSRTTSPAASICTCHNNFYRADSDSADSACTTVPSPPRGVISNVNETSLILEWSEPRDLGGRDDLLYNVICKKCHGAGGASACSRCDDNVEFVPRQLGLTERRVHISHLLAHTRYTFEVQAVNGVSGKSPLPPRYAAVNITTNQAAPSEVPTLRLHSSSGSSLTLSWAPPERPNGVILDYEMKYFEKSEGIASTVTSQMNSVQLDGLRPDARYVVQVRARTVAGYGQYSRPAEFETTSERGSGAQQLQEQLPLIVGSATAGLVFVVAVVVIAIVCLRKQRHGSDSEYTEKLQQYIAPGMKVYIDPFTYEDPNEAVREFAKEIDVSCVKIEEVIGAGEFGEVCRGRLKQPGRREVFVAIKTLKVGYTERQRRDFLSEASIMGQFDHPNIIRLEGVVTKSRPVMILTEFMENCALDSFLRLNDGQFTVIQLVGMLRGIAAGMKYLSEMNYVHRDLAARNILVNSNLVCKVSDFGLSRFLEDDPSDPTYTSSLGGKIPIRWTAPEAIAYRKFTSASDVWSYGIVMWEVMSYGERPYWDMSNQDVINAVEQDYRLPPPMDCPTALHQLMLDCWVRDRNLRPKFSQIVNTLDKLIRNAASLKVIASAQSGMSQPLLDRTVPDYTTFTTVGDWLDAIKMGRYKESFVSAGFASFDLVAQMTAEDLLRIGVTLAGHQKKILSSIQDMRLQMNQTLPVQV
Nature of the data set: Inhibition of human EPHB3 (561 to 998 residues) assessed as enzyme activity at 1 uM using 33P ATP by radioactive filter binding assay. Also on record: scale not given: the % may be the effect or the level left.

Data set [11] deals with Serine/threonine-protein kinase N2 (Homo sapiens) (UniProt Q16513). Nature of the data set: Inhibition of human PRK2 (501 to 984 residues) assessed as enzyme activity at 1 uM using 33P ATP by radioactive filter binding assay. Also on record: scale not given: the % may be the effect or the level left.
Data set [12] is described as follows: Intrinsic clearance in human liver microsomes. Format: ADME. The note with it: read-out: CLH. A general note: Microsomes from liver hold many membrane-bound enzymes, among them those of drug oxidation.
Data set [13] deals with Serine/threonine-protein kinase PAK 5 (Homo sapiens) (UniProt Q9P286). Nature of the data set: Inhibition of human PAK5 (2 to 719 residues) assessed as enzyme activity at 1 uM using 33P ATP by radioactive filter binding assay. Also on record: scale not given: the % may be the effect or the level left.
Data set [14] can be described thus: Permeability across apical to basolateral side in human Caco2 cells. Format: ADME, cell-based. The conditions noted are these: Caco-2.
The target in data set [15] is MAP kinase-activated protein kinase 3 (Homo sapiens) (UniProt Q16644). The experiment in a line: Inhibition of human MAPKAPK3 (2 to 382 residues) assessed as enzyme activity at 1 uM using 33P ATP by radioactive filter binding assay. Also on record: scale not given: the % may be the effect or the level left.
The target in data set [16] is Homeodomain-interacting protein kinase 3 (Homo sapiens) (UniProt Q9H422). The experiment in a line: Inhibition of human HIPK3 (161 to 562 residues) assessed as enzyme activity at 1 uM using 33P ATP by radioactive filter binding assay. Also on record: scale not given: the % may be the effect or the level left.
For data set [17], the target named is Aurora kinase C (Homo sapiens) (UniProt Q9UQB9). The experiment in a line: Inhibition of AURKC (unknown origin) assessed as enzyme activity at 1 uM using 33P ATP by radioactive filter binding assay. Also on record: scale not given: the % may be the effect or the level left.
In data set [18] the target is Serine/threonine-protein kinase Nek7 (Homo sapiens) (UniProt Q8TDX7). Nature of the data set: Inhibition of NEK7 (unknown origin) assessed as enzyme activity at 1 uM using 33P ATP by radioactive filter binding assay. Also on record: scale not given: the % may be the effect or the level left.
Data set [19] deals with Mitogen-activated protein kinase 10 (Homo sapiens) (UniProt P53779). The experiment in a line: Inhibition of human JNK3alpha1 assessed as enzyme activity at 1 uM using 33P ATP by radioactive filter binding assay. Also on record: scale not given: the % may be the effect or the level left.

Homeodomain-interacting protein kinase 2 (Homo sapiens), sequence (Q9H2X6 whole entry, looked up, the tested form may be a part): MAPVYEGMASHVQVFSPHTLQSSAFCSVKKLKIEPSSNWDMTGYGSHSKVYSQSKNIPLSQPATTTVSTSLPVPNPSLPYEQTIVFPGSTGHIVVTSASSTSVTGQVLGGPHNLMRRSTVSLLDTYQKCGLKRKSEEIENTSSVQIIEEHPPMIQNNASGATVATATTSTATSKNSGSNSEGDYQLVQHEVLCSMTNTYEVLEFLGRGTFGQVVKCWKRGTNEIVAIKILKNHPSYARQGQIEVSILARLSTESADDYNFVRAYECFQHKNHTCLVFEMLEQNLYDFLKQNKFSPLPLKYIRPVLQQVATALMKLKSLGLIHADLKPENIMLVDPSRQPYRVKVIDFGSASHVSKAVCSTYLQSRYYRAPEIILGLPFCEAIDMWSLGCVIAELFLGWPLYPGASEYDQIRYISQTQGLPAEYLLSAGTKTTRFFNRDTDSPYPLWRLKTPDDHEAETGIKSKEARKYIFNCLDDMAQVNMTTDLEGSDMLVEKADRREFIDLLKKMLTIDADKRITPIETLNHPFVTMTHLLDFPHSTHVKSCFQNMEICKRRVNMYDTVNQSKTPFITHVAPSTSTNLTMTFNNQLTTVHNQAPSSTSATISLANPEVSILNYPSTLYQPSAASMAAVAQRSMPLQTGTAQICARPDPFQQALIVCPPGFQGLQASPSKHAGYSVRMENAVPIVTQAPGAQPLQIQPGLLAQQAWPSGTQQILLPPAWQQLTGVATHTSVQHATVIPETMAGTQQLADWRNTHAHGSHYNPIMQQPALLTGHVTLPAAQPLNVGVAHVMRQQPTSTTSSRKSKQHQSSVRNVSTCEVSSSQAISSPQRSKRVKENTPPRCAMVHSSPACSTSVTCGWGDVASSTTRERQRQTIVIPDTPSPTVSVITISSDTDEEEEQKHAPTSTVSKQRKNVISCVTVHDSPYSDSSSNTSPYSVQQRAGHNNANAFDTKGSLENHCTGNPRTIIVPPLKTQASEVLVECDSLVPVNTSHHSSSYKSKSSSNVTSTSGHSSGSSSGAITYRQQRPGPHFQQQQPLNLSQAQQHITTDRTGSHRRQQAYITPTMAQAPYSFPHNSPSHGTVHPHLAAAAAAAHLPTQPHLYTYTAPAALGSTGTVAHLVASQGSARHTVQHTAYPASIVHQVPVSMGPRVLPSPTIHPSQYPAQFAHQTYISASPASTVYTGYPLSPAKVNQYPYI
Serine/threonine-protein kinase N2 (Homo sapiens), sequence (Q16513 whole entry, looked up, the tested form may be a part): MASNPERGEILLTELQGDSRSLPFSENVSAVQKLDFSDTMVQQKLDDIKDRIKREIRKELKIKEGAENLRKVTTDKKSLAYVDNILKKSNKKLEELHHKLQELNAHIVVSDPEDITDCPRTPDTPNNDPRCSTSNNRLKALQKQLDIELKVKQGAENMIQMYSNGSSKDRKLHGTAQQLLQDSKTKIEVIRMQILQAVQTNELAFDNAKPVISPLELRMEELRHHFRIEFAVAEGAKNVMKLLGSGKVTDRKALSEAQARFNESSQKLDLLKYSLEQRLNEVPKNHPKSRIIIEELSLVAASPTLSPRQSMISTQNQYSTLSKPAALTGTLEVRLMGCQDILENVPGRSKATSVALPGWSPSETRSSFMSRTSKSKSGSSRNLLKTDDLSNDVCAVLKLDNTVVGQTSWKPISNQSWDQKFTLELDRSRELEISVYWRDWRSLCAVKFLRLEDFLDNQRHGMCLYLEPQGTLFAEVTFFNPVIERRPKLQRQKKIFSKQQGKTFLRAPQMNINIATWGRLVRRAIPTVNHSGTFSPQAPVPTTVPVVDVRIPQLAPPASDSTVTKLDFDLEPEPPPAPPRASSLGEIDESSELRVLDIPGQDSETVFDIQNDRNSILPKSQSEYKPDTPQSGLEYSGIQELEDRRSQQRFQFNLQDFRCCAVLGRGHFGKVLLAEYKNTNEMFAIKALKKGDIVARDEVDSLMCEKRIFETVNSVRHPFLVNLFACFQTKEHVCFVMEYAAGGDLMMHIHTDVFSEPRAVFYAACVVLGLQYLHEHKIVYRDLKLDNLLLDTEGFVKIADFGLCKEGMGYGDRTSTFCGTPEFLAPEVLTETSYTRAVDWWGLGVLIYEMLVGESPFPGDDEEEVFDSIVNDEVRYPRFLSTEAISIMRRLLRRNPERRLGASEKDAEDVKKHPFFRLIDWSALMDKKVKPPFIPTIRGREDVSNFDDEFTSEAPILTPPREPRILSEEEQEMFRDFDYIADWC
Glycogen synthase kinase-3 beta (Homo sapiens), sequence (P49841 whole entry, looked up, the tested form may be a part): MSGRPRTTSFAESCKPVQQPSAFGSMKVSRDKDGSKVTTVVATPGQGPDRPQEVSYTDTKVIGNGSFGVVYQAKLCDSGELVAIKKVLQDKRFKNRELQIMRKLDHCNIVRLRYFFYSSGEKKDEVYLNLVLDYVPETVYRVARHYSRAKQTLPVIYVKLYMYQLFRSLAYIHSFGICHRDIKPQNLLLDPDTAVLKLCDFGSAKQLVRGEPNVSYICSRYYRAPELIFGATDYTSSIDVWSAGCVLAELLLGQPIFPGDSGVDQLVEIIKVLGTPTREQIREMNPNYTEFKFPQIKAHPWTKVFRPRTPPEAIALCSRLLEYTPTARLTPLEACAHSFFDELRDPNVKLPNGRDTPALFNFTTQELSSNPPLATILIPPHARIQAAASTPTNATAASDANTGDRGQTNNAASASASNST
Ribosomal protein S6 kinase alpha-1 (Homo sapiens), sequence (Q15418 whole entry, the tested form may be a part): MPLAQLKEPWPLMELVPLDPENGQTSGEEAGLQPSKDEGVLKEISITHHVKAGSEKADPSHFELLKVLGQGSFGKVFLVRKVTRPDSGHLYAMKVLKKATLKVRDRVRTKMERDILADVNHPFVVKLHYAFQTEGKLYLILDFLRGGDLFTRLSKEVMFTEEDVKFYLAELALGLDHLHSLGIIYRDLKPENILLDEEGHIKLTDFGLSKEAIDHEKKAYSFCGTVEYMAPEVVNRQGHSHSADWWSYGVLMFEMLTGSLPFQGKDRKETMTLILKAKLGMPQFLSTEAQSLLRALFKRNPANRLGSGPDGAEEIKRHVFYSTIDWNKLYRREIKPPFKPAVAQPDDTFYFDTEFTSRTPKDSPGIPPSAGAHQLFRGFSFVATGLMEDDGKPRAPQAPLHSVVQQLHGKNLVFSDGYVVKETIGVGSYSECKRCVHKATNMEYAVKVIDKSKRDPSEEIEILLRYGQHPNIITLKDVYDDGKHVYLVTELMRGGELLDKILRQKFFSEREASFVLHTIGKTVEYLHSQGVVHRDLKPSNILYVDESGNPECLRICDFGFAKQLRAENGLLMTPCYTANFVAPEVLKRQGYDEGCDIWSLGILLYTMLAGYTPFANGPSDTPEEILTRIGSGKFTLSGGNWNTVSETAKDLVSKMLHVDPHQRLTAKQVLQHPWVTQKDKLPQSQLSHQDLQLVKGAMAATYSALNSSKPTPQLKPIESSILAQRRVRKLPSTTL
Serine/threonine-protein kinase 26 (Homo sapiens), sequence (Q9P289 2-416 limits assumed): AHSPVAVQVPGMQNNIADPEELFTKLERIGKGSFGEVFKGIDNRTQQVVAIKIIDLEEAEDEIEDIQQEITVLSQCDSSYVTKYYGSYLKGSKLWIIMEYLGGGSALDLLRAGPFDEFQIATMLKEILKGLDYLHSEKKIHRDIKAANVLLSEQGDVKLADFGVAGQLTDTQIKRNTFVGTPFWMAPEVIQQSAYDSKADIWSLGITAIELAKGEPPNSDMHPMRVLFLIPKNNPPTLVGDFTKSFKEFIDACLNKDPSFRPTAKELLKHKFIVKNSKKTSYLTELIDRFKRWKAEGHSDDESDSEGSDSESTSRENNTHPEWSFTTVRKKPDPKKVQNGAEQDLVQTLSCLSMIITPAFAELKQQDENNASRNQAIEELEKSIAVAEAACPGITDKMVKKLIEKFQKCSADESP
Serine/threonine-protein kinase PAK 5 (Homo sapiens), sequence (Q9P286 whole entry, looked up, the tested form may be a part): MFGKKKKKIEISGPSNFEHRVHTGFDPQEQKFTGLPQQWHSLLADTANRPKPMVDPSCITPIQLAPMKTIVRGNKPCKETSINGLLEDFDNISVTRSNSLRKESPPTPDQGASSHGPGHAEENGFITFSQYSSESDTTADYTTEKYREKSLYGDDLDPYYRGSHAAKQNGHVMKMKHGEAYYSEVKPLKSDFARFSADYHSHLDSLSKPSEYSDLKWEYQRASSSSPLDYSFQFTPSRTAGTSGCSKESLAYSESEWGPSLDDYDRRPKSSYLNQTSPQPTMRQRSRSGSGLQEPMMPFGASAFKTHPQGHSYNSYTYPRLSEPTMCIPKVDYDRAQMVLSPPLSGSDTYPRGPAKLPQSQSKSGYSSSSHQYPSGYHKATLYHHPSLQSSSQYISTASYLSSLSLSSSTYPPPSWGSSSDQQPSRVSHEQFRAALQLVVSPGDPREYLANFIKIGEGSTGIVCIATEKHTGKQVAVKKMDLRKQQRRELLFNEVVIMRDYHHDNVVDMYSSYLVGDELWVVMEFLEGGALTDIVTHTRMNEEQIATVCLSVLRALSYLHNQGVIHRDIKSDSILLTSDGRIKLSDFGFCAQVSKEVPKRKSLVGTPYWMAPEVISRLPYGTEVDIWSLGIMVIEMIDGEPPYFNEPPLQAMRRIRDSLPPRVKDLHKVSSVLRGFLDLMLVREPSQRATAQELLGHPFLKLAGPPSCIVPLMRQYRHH
Serine/threonine-protein kinase Nek7 (Homo sapiens), sequence (Q8TDX7 whole entry, looked up): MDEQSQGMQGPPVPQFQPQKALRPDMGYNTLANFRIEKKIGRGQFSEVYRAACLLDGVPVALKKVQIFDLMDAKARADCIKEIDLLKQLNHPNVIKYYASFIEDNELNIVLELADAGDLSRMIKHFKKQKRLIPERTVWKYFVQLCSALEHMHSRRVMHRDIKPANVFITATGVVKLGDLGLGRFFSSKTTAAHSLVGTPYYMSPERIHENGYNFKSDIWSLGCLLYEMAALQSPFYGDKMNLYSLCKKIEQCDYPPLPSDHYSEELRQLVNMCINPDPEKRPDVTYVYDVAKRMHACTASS

Turning to `CCCCc1cc(-c2c[nH]c3ncc(-c4cnn(C5CCNCC5)c4)cc23)nc(N)n1`, the Activity is -92% in data set [1]; -42% in [2]; -72% in [4]; -88% in data set [5]; -40% in [6]; -94% in [7]. Besides, the Activity in [8] was -28%; in data set [10], -25%; in data set [11], -94%; in [13] it was -38%. Moreover, the microsomal CLint in data set [3] and in [12] was less than 10 µL/min/mg throughout. In addition, the IC50 (usually the concentration needed to halve the response being measured) in data set [9] is more than 30 µM. Moreover, the Papp A→B – broadly, how fast a substance crosses the layer from the apical side – in data set [14] was found to be 0.3 ×10⁻⁶ cm/s.

`CCc1cc(-c2c[nH]c3ncc(-c4cnn(C5CCNCC5)c4)cc23)nc(N)n1`: the Activity in data set [1] is -99%; in data set [2], -38%; in [4], -40%; in data set [5] it was -86%; in data set [6] it was -49%; in [7], -94%. In addition, the Activity in data set [8] was -8%; in data set [10], -19%; in [11] it was -86%; in [13] it was 200%. The microsomal CLint in [3] and in [12] was less than 10 µL/min/mg each time. This molecule gave a Papp A→B in data set [14] of 1.3 ×10⁻⁶ cm/s.

`Nc1nccc(-c2c[nH]c3ncccc23)n1` [MERIOLIN 1]: the Activity in data set [1] is -79%; in data set [2], -66%; in [15] it was -8%; in data set [4] it was -35%; in [5], -82%; in data set [6] it was -9%. Besides, the Activity is -77% in data set [7]; -6% in [8]; -69% in data set [16]; 28% in [10]; -73% in data set [11]; -3% in data set [17]. Moreover, the results for the Activity in data set [18], in [13] and in [19] were -2%, -30% and -11%, respectively.

Take `CCCCc1cc(-c2c[nH]c3ncccc23)nc(N)n1`: the Activity in [1] was -67%; in data set [2], -54%; in data set [15], 17%; in data set [4] it was -10%; in data set [5] it was -56%; in [6] it was -4%. In addition, the Activity in data set [7] is -86%; in data set [16], -52%; in [11] it was -63%; in [17] it was -15%; in data set [18], 4%; in [13] it was 6%. For the same molecule, in [19], the Activity was determined as 1%. The IC50 in data set [9] was more than 10 µM.
